Data on 13 compounds can be found in patent US8193191B2, “Urotensin II receptor antagonists” (Janssen Pharmaceutica N.V., priority 2006, dated 2012).

pIC50, pKi: −log10 of the molar value.

In test [1] the target is T1, rat GPR14 (U-II receptor) (Rattus norvegicus, UniProt P49684).
T1 construct: expressed in transfected cells
T1 sequence (P49684 1-386): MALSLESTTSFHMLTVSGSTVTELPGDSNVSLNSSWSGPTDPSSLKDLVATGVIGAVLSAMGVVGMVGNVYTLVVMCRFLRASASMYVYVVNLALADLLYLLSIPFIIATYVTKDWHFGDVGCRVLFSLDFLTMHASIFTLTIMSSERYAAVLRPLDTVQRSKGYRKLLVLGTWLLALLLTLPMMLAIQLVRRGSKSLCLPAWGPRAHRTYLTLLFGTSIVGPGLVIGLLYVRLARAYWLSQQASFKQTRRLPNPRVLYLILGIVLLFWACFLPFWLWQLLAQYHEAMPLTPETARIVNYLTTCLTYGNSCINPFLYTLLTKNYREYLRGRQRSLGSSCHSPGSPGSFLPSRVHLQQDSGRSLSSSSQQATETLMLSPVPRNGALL
Put plainly: Rat UII Calcium Mobilization FLIPR Assay. Conditions: average value for the compound tested; read-out: Rat UII FLIPR Average IC50. The class given is cell-based. The procedure, abridged: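 Fluorescent calcium signals were recorded at room temperature (23° C) by FLIPR. Stable rat U-II receptor CHO lines had been dye-loaded for 1 h at 37° C in pH 7.4 HBSS containing 20 mM HEPES, 0.1% BSA and 2.5 mM probenecid.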
(In general: Calcium assays in cells follow changes in intracellular calcium, usually with a dye or a luminescent sensor.)

The target in test [2] is T2, Human UII receptor, 6D9 human rhabdomyosarcoma cells (Homo sapiens, UniProt Q9UKP6).
T2 construct: 6D9: isolated by dilution subcloning of RMS13 cells, ATCC® Number: CRL-2061; host or cells: 6D9 human rhabdomyosarcoma cells (subclone of RMS13)
T2 sequence (Q9UKP6 1-389): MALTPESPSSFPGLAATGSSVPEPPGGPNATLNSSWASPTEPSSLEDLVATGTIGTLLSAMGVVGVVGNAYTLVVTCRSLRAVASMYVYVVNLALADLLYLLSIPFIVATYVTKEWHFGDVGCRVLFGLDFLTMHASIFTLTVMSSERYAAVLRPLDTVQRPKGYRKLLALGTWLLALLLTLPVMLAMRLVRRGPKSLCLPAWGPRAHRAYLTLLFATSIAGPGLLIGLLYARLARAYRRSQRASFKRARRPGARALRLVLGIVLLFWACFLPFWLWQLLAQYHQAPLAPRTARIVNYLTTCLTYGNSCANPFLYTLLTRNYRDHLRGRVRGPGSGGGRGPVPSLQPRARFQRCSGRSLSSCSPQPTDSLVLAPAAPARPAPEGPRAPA
Put plainly: Human UII Calcium Mobilization Assay. The class given is cell-based. Conditions: average value, FLIPR TETRA, read-out: Human UII Ca^+ Mobilization Average IC50. How it is done: 6D9 human rhabdomyosarcoma cells were seeded into tissue culture treated 384-well black-walled clear bottom plates (3712, Corning Incorporated, Corning, N.Y.) at 8,000 cells/well in 25 μL of culture medium, and maintained in an incubator (5% CO2 at 37° C.) for 22 hrs prior to the calcium mobilization assay. 25 μL of dye solution was added to the wells such that the final liquid volume before agonist/antagonist treatment was 50 μL for all assays. The cell plates were incubated at 37° C. for 45 minutes and the fluorescence intensity was measured on a Fluorometric Imaging Plate Reader (FLIPR^TETRA, Molecular Devices, Sunnyvale, Calif.).
Antagonist and agonist U-II were added at room temperature on the FLIPR^TETRA, and the fluorescence intensity before and after addition was measured over a period of 4 minutes. The dye incubation time and temperature as well as instrument setting was adjusted so the fluorescence intensity could be compared between plates on the same day. EC50 and IC50 were analyzed using GraphPad Prism 4 software (GraphPad Software Inc., San Diego, Calif.).
Materials and reagent Preparation: Human Rhabdomyosarcoma cells (6D9: isolated by dilution subcloning of RMS13 cells, ATCC® Number: CRL-2061, American Type Culture Collection ATCC, Manassas, Va.) was maintained in RPMI-1640 medium (30-2001, ATCC, Manassas, Va.) supplemented with 10% (v/v) Fetal Bovine Serum (SH30071.03, Hyclone, Logan, Utah).
Dye preparation: BD™ Calcium Assay Kit (80500-301, BD Biosciences, Rockville, Md.) was prepared according to the manufacture's instruction in 1× Hanks' balanced salt solution (HBSS, 21-023-CV, Mediatech, Inc. Herndon, Va.) containing 20 mM HEPES buffer (25-060-CI, Mediatech, Inc. Herndon, Va.). Final dye loading conditions included 1.25 mM probenecid (P36400, Invitrogen, Carlsbad, Calif.) and 0.01% FBS.
Urantide (PUT-3639-PI, Peptide International, Louisville, Ky.) was prepared in water at 5 mM. For assays, U-II agonist, U-II antagonist and urantide were diluted with HBSS/HEPES containing 0.01% FBS.
Test compounds were dissolved in DMSO at 10 mM concentration. The serial dilutions were carried out in HBSS/HEPES. The highest final DMSO concentration was at 0.1%.

Test [3] addresses T3, endogenous human UII receptor (Homo sapiens, UniProt Q9UKP6).
T3 sequence (Q9UKP6 1-389): T2 sequence (Q9UKP6 1-389)
Put plainly: Human Radioligand Binding Assay ((^125I)-U-II binding to human skeletal muscle myoblasts).

Broadly, the pIC50 is −log10 of the IC50, conventionally taken in molar units. Broadly, the pKi is −log10 of the Ki, conventionally taken in molar units. Lower therefore signals a large Ki. In the case of `COc1ccc(C(CCCNS(=O)(=O)c2ccc(-c3ccon3)s2)N2C(=O)c3cccc(N4CCN([C@H](C)c5ccccc5)CC4)c3C2=O)cc1OC` (stereo partly drawn) [Cpd 95, 5-isoxazol-3-yl-thiophene-2-sulfonic acid (4-(3,4-dimethoxy-phenyl)-4-{1,3-dioxo-4-[4-(1R)-(1-phenyl-ethyl)-piperazin-1-yl]-1,3-dihydro-isoindol-2-yl}-butyl)-amide], the pIC50 in test [1] is 7.05; in test [2], 6.70. This compound showed a pKi in test [3] of 6.96.

Regarding `COc1ccc(C(CCCNS(=O)(=O)c2ccccc2)N2C(=O)c3cccc(N4CCN([C@H](C)c5ccccc5)CC4)c3C2=O)cc1OC` (stereo partly drawn) [Cpd 96, N-(4-(3,4-dimethoxy-phenyl)-4-{1,3-dioxo-4-[4-(1R)-(1-phenyl-ethyl)-piperazin-1-yl]-1,3-dihydro-isoindol-2-yl}-butyl)-benzenesulfonamide], the pIC50 in test [1] is 7.01; in test [2], 6.12. In test [3], the negative logarithm of the Ki (pKi) was 7.01.

As for `COc1ccc(C(CCCNS(=O)(=O)c2sc(NC(C)=O)nc2C)N2C(=O)c3cccc(N4CCN([C@H](C)c5ccccc5)CC4)c3C2=O)cc1OC` (stereo partly drawn) [Cpd 97, N-[5-(4-(3,4-dimethoxy-phenyl)-4-{1,3-dioxo-4-[4-(1R)-(1-phenyl-ethyl)-piperazin-1-yl]-1,3-dihydro-isoindol-2-yl}-butylsulfamoyl)-4-methyl-thiazol-2-yl]-acetamide], the figures for the pIC50 in test [1] and in test [2] were 7.20 and 6.15, respectively. Moreover, the negative logarithm of the Ki (pKi) in test [3] is 6.74.

In the case of `COc1ccc(C(CCCNS(=O)(=O)c2cn(C)cn2)N2C(=O)c3cccc(N4CCN([C@H](C)c5ccccc5)CC4)c3C2=O)cc1OC` (stereo partly drawn) [Cpd 98, 1-methyl-1H-imidazole-4-sulfonic acid (4-(3,4-dimethoxy-phenyl)-4-{1,3-dioxo-4-[4-(1R)-(1-phenyl-ethyl)-piperazin-1-yl]-1,3-dihydro-isoindol-2-yl}-butyl)-amide], the pIC50 in test [1] was 7.74; in test [2], 6.46. In addition, the pKi in test [3] was 7.38.

Take `COc1ccc(C(CCCNS(=O)(=O)c2cc(C)oc2C)N2C(=O)c3cccc(N4CCN([C@H](C)c5ccccc5)CC4)c3C2=O)cc1OC` (stereo partly drawn) [Cpd 99, 2,5-dimethyl-furan-3-sulfonic acid (4-(3,4-dimethoxy-phenyl)-4-{1,3-dioxo-4-[4-(1R)-(1-phenyl-ethyl)-piperazin-1-yl]-1,3-dihydro-isoindol-2-yl}-butyl)-amide]: the pIC50 is 6.77 in test [1] and 5.57 in test [2]. Further, the pKi in test [3] was 6.21.

As to `COc1ccc(C(CCCNS(=O)(=O)c2c(C)nn(C)c2Cl)N2C(=O)c3cccc(N4CCN([C@H](C)c5ccccc5)CC4)c3C2=O)cc1OC` (stereo partly drawn) [Cpd 101, 5-chloro-1,3-dimethyl-1H-pyrazole-4-sulfonic acid (4-(3,4-dimethoxy-phenyl)-4-{1,3-dioxo-4-[4-(1R)-(1-phenyl-ethyl)-piperazin-1-yl]-1,3-dihydro-isoindol-2-yl}-butyl)-amide], the figures for the pIC50 in test [1] and in test [2] were 7.52 and 6.52, respectively. In test [3], this compound had a negative-log Ki (pKi) of 6.92.

For `COc1ccc(C(CNC(=O)Cc2ccncc2)N2C(=O)c3cccc(N4CCN([C@H](C)c5ccccc5)CC4)c3C2=O)cc1OC` (stereo partly drawn) [Cpd 102, N-(2-(3,4-dimethoxy-phenyl)-2-{1,3-dioxo-4-[4-(1R)-(1-phenyl-ethyl)-piperazin-1-yl]-1,3-dihydro-isoindol-2-yl}-ethyl)-2-pyridin-4-yl-acetamide], the pIC50 in test [1] was 7.31; in test [2], 6.28. Further, in test [3], the pKi is 7.00.

In the case of `COc1ccc(C(CCCNC(=O)c2cccs2)N2C(=O)c3cccc(N4CCN([C@H](C)c5ccccc5)CC4)c3C2=O)cc1OC` (stereo partly drawn) [Cpd 104, thiophene-2-carboxylic acid (4-(3,4-dimethoxy-phenyl)-4-{1,3-dioxo-4-[4-(1R)-(1-phenyl-ethyl)-piperazin-1-yl]-1,3-dihydro-isoindol-2-yl}-butyl)-amide], the pIC50 in test [1] was 7.28; in test [2] it was 6.77. This compound showed a pKi in test [3] of 6.92.

As to `COc1ccc(C(CCCNS(=O)(=O)c2ccsc2)N2C(=O)c3cccc(N4CCN([C@H](C)c5ccccc5)CC4)c3C2=O)cc1OC` (stereo partly drawn) [Cpd 105, thiophene-3-sulfonic acid (4-(3,4-dimethoxy-phenyl)-4-{1,3-dioxo-4-[4-(1R)-(1-phenyl-ethyl)-piperazin-1-yl]-1,3-dihydro-isoindol-2-yl}-butyl)-amide], the values for the pIC50 in test [1] and in test [2] were 7.17 and 6.96, respectively. Also, in test [3], the pKi is 7.19.

In the case of `COc1ccc(C(CCCNS(=O)(=O)c2cccnc2)N2C(=O)c3cccc(N4CCN([C@H](C)c5ccccc5)CC4)c3C2=O)cc1OC` (stereo partly drawn) [Cpd 106, pyridine-3-sulfonic acid (4-(3,4-dimethoxy-phenyl)-4-{1,3-dioxo-4-[4-(1R)-(1-phenyl-ethyl)-piperazin-1-yl]-1,3-dihydro-isoindol-2-yl}-butyl)-amide], the pIC50 in test [1] was 7.80; in test [2], 6.64. In addition, the pKi in test [3] is 7.10.

Take `COc1ccc(C(CCCNS(=O)(=O)c2ccccn2)N2C(=O)c3cccc(N4CCN([C@H](C)c5ccccc5)CC4)c3C2=O)cc1OC` (stereo partly drawn) [Cpd 107, pyridine-2-sulfonic acid (4-(3,4-dimethoxy-phenyl)-4-{1,3-dioxo-4-[4-(1R)-(1-phenyl-ethyl)-piperazin-1-yl]-1,3-dihydro-isoindol-2-yl}-butyl)-amide]: the figures for the pIC50 in test [1] and in test [2] were 7.60 and 6.36, respectively. Further, in test [3], the pKi was 8.00.

For `COc1ccc(C(CCCNS(=O)(=O)c2cnoc2C)N2C(=O)c3cccc(N4CCN([C@H](C)c5ccccc5)CC4)c3C2=O)cc1OC` (stereo partly drawn) [Cpd 108, 5-methyl-isoxazole-4-sulfonic acid (4-(3,4-dimethoxy-phenyl)-4-{1,3-dioxo-4-[4-(1R)-(1-phenyl-ethyl)-piperazin-1-yl]-1,3-dihydro-isoindol-2-yl}-butyl)-amide], the pIC50 in test [1] is 7.85; in test [2], 7.34. The same compound showed a pKi in test [3] of 7.51.

Consider `COc1ccc(C(CCCNS(=O)(=O)c2cccc3cccnc23)N2C(=O)c3cccc(N4CCN([C@H](C)c5ccccc5)CC4)c3C2=O)cc1OC` (stereo partly drawn) [Cpd 109, quinoline-8-sulfonic acid (4-(3,4-dimethoxy-phenyl)-4-{1,3-dioxo-4-[4-(1R)-(1-phenyl-ethyl)-piperazin-1-yl]-1,3-dihydro-isoindol-2-yl}-butyl)-amide], for which the pIC50 is 7.57 in test [1] and 6.52 in test [2]. Besides, in test [3], the pKi is 7.72.
